Assays:
HeLa cells = type: cell-based
[1] = system: patient-derived mouse xenograft tumors; assay: Speckle signature versus PT2399 sensitivity of patient-derived mouse xenograft ccRCC tumors; type: in vivo
Description: Methods for determining speckle signature and TCGA survival analysis. Four-hundred and forty-six protein genes annotated as “Enhanced”, “Supported”, or “Approved” for subcellular localization within nuclear speckles were identified in The Human Protein Atlas and their upper-quartile normalized RNA expression was extracted from the 30 PanCan TCGA projects that had greater than 50 samples. Principal Component Analysis was then performed on these 446 speckle protein genes. In doing so, each speckle protein gene was assigned a weight (called rotation in the analysis) that was used in the analysis to separate tumor sample along the first Principal Component (PC1). The absolute value of a speckle protein gene PC1 weight thus estimates the contribution of each speckle protein gene to patient variation and the PC1 weight sign, positive or negative, reflects genes that have opposite expression patterns to one another. To compare speckle protein gene expression contributions to patient variation between cancer types, the pairwise Pearson's correlation coefficients of the speckle protein PC1 weights were used. […] With collected ccRCC samples and published drug response studies, speckle scores were calculated using the above formula. […] Then differences in drug responses were calculated using a Fisher's exact test (FIG. 53) or Kaplan Meier statistics (FIG. 54).

ccRCC = ccRCC clinical trial, overall survival by speckle signature, nivolumab versus everolimus; type: in vivo, human; details: nivolumab arm versus everolimus arm
Description: Without wishing to be bound by theory, it is envisioned that having both RNA- and imaging-based methods for measuring speckle phenotypes will assist in the development of cancer- and patient-specific treatment strategies. As a proof-of-concept for a potential use of nuclear speckle phenotyping, a series of studies was undertaken in which speckle signature was correlated with tumor/patient drug response in available data from a human clinical trial and patient-derived mouse xenograft studies.
Thus, contrasting with HIF-2a inhibition, PD1 inhibition may have a greater impact in individuals with Signature II tumors.
Methods for determining speckle signature and TCGA survival analysis. Four-hundred and forty-six protein genes annotated as “Enhanced”, “Supported”, or “Approved” for subcellular localization within nuclear speckles were identified in The Human Protein Atlas and their upper-quartile normalized RNA expression was extracted from the 30 PanCan TCGA projects that had greater than 50 samples. Principal Component Analysis was then performed on these 446 speckle protein genes. In doing so, each speckle protein gene was assigned a weight (called rotation in the analysis) that was used in the analysis to separate tumor sample along the first Principal Component (PC1). The absolute value of a speckle protein gene PC1 weight thus estimates the contribution of each speckle protein gene to patient variation and the PC1 weight sign, positive or negative, reflects genes that have opposite expression patterns to one another. To compare speckle protein gene expression contributions to patient variation between cancer types, the pairwise Pearson's correlation coefficients of the speckle protein PC1 weights were used. In order to obtain a set of speckle protein genes that consistently contributed to patient variation in many cancer types, the rotation signs were flipped so that the speckle protein gene, SON, was always assigned a negative weight. […] Speckle score was then used to separate samples into groups for Kaplan Meier and gene expression analysis between the two groups. With collected ccRCC samples and published drug response studies, speckle scores were calculated using the above formula. In drug-response data (related to FIG. 52), samples with positive speckle scores were considered speckle Signature I and samples with negative speckle scores were considered speckle Signature II. Then differences in drug responses were calculated using a Fisher's exact test (FIG. 53) or Kaplan Meier statistics (FIG. 54).

Compound	speckle association of the CCND1 gene locus (HeLa cells)	fraction of Signature II tumors sensitive to PT2399 ([1]; xenograft tumors with negative speckle score (Signature II)) [%]	fraction of Signature I tumors sensitive to PT2399 ([1]; xenograft tumors with positive speckle score (Signature I)) [%]	overall survival, Signature I patients (ccRCC)	overall survival probability, Signature II patients (ccRCC)
[Cl-].[Cl-].[Co+2] [CoCl2]	increased speckle association of the CCND1 gene locus				
N#Cc1cc(F)cc(Oc2ccc(S(=O)(=O)C(F)F)c3c2CC(F)(F)[C@H]3O)c1 [PT2399]		~30	~75		
CO[C@H]1C[C@@H]2CC[C@@H](C)[C@@](O)(O2)C(=O)C(=O)N2CCCC[C@H]2C(=O)O[C@H]([C@H](C)C[C@@H]2CC[C@@H](OCCO)[C@H](OC)C2)CC(=O)[C@H](C)/C=C(\C)[C@@H](O)[C@@H](OC)C(=O)[C@H](C)C[C@H](C)/C=C/C=C/C=C/1C [everolimus]				did not differ in overall survival between the two treatment groups	higher overall survival probability when treated with nivolumab compared to everolimus
nivolumab				did not differ in overall survival between the two treatment groups	higher overall survival probability when treated with nivolumab compared to everolimus

Source: patent US20240254179A1, “Targeting Nuclear Speckles and DNA Speckle Association” (THE TRUSTEES OF THE UNIVERSITY OF PENNSYLVANIA, priority 2023, published 2024)
